From patent publication US8597700B2, “Method of treating osteoporosis with extract of Dioscorea sp” (National Yang-Ming University, priority 2002, dated 2013)
Marks after values point to notes of the source that are not given here.

Experiments:
osteoprogenitor cells = test: Proliferative response of osteoprogenitor cells of mice (MTT assay); format: cell-based, C3H/HeN mice; conditions: 0.01 and 0.1 μg/ml, 72 hours
Experimental: Under sterile conditions, femoral bones of the SPF grade of C3H/HeN mouse were obtained and injected with DMEM/F12. The bone marrow cells were flushed out and filtered through No. 53 sterile nylon mesh. The single cell suspension obtained was mixed with DMEM/F12 culture medium containing 15% FCS to adjust the concentration of the cells.
The cells were cultured in DMEM/F12 medium containing 15% FCS, 50 μg/ml ascorbic acid, 10 mM sodium β glycerophosphate and 10 nM dexamethasone in a T-flask for 6 days. The culture medium was renewed every 3 days. The cell concentration was 10^6 cells/cm^2. On the 6th day, the suspended cells and culture medium were drawn out. The adhering cell layer was washed with 1×PBS that had been warmed to room temperature, and then treated with 0.01% EDTA at 37° C. for 5 to 10 minutes. […]
The cells obtained in preparatory step 4 were dispersed using a 22 G gauge needle and suspended in DMEM/F12 medium containing 15% FCS, 50 μg/ml ascorbic acid, 10 mM sodium β-glycerophosphate and 10 nM dexamethazone to form a concentration of 4.5×10^4 cells/ml. […] 1 mg/ml MTT solution was added in each well and reacted for 4 hours MTT lysis buffer (20% SDS-50% DMF) was added in each well in the amount of 150 μl/well and reacted for 16 hours, and the absorbance was measured at O.D. 570 nm for the resultant cell suspension in each well.

[1] = test system: bone marrow cells of C3H mice; test: Proliferation (MTT) and morphological changes of bone marrow cells in the presence of EGF; format: cell-based, C3H/HeN mice
Experimental: (§1) Under sterile conditions, SPF grade C3H/HeN mice were sacrificed and their femoral bones were injected with a liquid culture of DMEM/F12 to flush out the bone marrow cells. The cells were filtered through sterile No. 53 nylon mesh. The single cell suspension so obtained was mixed with DMEM/F12 culture medium containing N2 to adjust to the proper concentration.
1×10^4 cells/well bone marrow cells of mice obtained in preparatory step 3 were seeded in a 96-well microplate containing DMEM/F12 culture medium with N2 and 10 ng/ml EGF and incubated in a 5% CO2 incubator at 37° C for 24 hrs. The extract and DHEA were added into different wells respectively. Wells containing pure culture medium into which no methanol extract and DHEA were added, and which were subjected to the same incubation procedure, were used as […]. In addition, for use as positive control, the same procedure as that for control was repeated except that 50 ng/ml EGF was used. The proliferation responses were measured by a MTT assay. In accordance with the MTT assay, each of the wells was added with 1 mg/ml MTT solution and, after 4 hours of reaction, MTT lysis buffer (20% SDS-50% DMF) was added thereinto in an amount of 150 μl/well. The resultant mixture was allowed to be reacted for 16 hours. The absorbance was measured at O.D. 570 nm.

[2] = test system: bone marrow cells of mice; test: Proliferation (MTT) and morphologic change of bone marrow cells in the presence of GM-CSF; format: cell-based
Experimental: as §1
1×10^4 cells/well bone marrow cells of mice obtained in preparatory step 3 were seeded in each well of the 96-well microplate, cultured in DMEM/F 12 culture medium containing N2, and 4 ng/ml mGM-CSF. Methanol extracts of Dioscorea sp. with different concentrations were respectively added into the resultant cultured cells in the different wells. The resultant methanol extract containing cultured cells in different wells were then incubated in a 5% CO2 incubator at 37° C. for 14 days. The cells cultured in DMEM/F12 medium containing N2 and 20 ng/ml mGM-CSF is used as positive control. A MTT assay was performed. In this respect, 1 mg/ml MTT solution was added in each well so as to react with the cultured cells therein for 4 hours. MTT lysis buffer (20% SDS-50% DMF) was added in a n amount of 150 μl/well. The resultant mixture was allowed to react for 16 hours. The absorbance was measured at O.D. 570 nm.

C[C@]12CC[C@H](O)CC1=CC[C@@H]1[C@@H]2CC[C@]2(C)C(=O)CC[C@@H]12 [DHEA, Dehydroepiandrosterone]
proliferation of the osteoprogenitor cells (osteoprogenitor cells): no effect
Proliferation Index ([1]; 0.0001 μg/ml): 0.99
Proliferation Index ([1]; 0.001 μg/ml): 0.64
Proliferation Index ([1]; 0.01 μg/ml): 0.65
Proliferation Index ([1]; 0.1 μg/ml): 0.67
Proliferation Index ([1]; 1 μg/ml): 0.70
Proliferation Index ([2]; 0.0001 μg/ml): 0.99
Proliferation Index ([2]; 0.001 μg/ml): 1.15
Proliferation Index ([2]; 0.01 μg/ml): 1.04
Proliferation Index ([2]; 0.1 μg/ml): 1.13
Proliferation Index ([2]; 1 μg/ml): 1.11
Proliferation Index ([2]; 10 μg/ml): 1.19*
differentiation of bone marrow cells ([2]; 20-week old adult mouse bone marrow cells): enhancing cell differentiation
